Here are results for 2 compounds from patent US20060173009A1, “Agent inducing increase in bone mass” (priority 2003, published 2006).

Assay [1] concerns osteoporosis model (rat OVX). Put plainly: Osteoporosis model (rat OVX), Test 1: 12 weeks administration, compound A and incadronate. To be noted: for femoral bone strength (three-point bending test) / femoral cortical bone mineral density (pQCT) / femoral cortical bone thickness (pQCT): OVX rats, compound A 30 mg/kg twice a day oral, incadronate 1 mg/kg once a day oral; for femoral bone strength (three-point bending test): in comparison with Control Group 1 (FIG. 1); for femoral cortical bone mineral density (pQCT): in comparison with Control Group 1 (FIG. 2); for femoral cortical bone thickness (pQCT): in comparison with Control Group 1 (FIG. 3). Format: in vivo. On the procedure:
(§1) Female SD rats of 16 weeks of age (Charles River Japan) were used in the test. Under anesthesia, both sides of ovaries were exposed, and ovaries of all groups excluding the sham operation group were ligated and extracted. In the sham operation group, only an operation of exposing ovaries to the outside of abdomen was carried out.
(§2) Preparation of the aforementioned model was carried out by referring to the method of Kalu et al., (Bone Miner., vol. 15, p. 175 (1991)) and the method of Frost et al., (Bone Miner., vol. 18, p. 227 (1992)).
Before carrying out the ovariectomy (OVX), bone mineral density at 5 mm from the tibial proximal end was measured by pQCT. By leaving for 8 weeks after the OVX, significant reduction of the bone mineral density was confirmed. […] The bone density was measured every 4 weeks after the administration, and urine samples were collected during 24 hours from the previous day of the completion of observation period. After completion of the urine collection, they were sacrificed by exsanguinations under ether anesthesia, and samples were collected.
Bone strength of the femoral diaphysis was measured by three-point bending test (TK-252c, mfd. by Muromachi Kikai). A femur was gently put on a supporting table of 20 mm in distance between supporting points, a bending load was applied on the midpoint of femur at a rate of 10 mm/min, and a load-deformation curve was recorded until its breakage. Maximum value of the load-deformation curve was used as the ultimate force, and the slope of the linear portion of the load-defomation curve was used as the stiffness.
Using a peripheral quantitative computed tomography (PQCT, XCT960A, mfd. by Norland-Stratec), cross-section of the bone was scaned, and bone mineral density and the like various parameters were calculated by analyzing the image.
As a bone metabolism marker, measurement of lysylpyridinoline (deoxypyridinoline hereinafter) value was carried out by SRL MediSearch using an HPLC method (Uebelhart, D et al., Bone Miner., vol. 8, p. 87 (1990)). In order to exclude influence of urine volume, the thus obtained deoxypyridinoline value was corrected by dividing the value by urine creatinine concentration or multiplying the 24 hour urine volume.
The compound of Production Example 93 (6-(4-fluoropiperidin-1-yl)-3-(6-methoxypyridin-2-yl)-1,2,4-triazolo[4,3-b]pyridazine: to be referred to as compound A hereinafter) which is a typical compound of the compound (I) was used as the non-living body-derived non-peptide osteoblast differentiation promoting compound of the invention, and incadronate (Bisphonal (registered trademark)) as the bisphosphonate, respectively. Groups in which the compound A or incadronate alone and a parathyroid hormone hPTH(1-34) are to be administered were used as comparative groups. In addition, the drug-non-administered OVX group and the sham operation group were used as control groups. The compound A was orally administered twice a day as a 0.5% methyl cellulose suspension of 30 mg/5 ml/kg, and incadronate was orally administered once a day as an aqueous solution of 1 mg/2.5 ml/kg. The hPTH(1-34) was subcutaneously administered once a day as a physiological saline solution of 3 μg/1 ml/kg. To the control groups was orally administered 0.5% methyl cellulose twice a day.

Assay [2] concerns osteoporosis model (rat OVX). In words: Osteoporosis model (rat OVX), Test 2: 4 weeks administration, compound A and alendronate. Format: in vivo. The note with it: Test 2, OVX rats, 24 hour urine 5 weeks after the administration, EIA method (FIG. 7). As for the experimental part: as §1, §2
Before carrying out the ovariectomy (OVX), bone mineral density of tibial metaphysis at 5 mm from the tibial proximal end was measured by pQCT. By leaving for 8 weeks after the OVX, significant reduction of the bone mineral density of tibial metaphysis was confirmed by re-measurement. […] After 4 weeks of the administration, the cortical bone thickness and bone mineral density of the tibial diaphysis were measured in the same manner as described in the above. In addition, urine samples were collected during 24 hours 5 weeks after the administration, and the urinary deoxypyridinoline was measured by an EIA method (Osteolinks “DPD”, mfd. by Sumitomo Pharmaceutical Biomedical). […]

For `O=P(O)(O)C(NC1CCCCCC1)P(=O)(O)O` [incadronate, reference compound], in assay [1], the “femoral bone strength (three-point bending test)” value was “increasing tendency”, the “femoral cortical bone mineral density (pQCT)” value is listed as “increasing tendency” and the “femoral cortical bone thickness (pQCT)” value is reported as “increasing tendency”.

For the compound `COc1cccc(-c2nnc3ccc(N4CCC(F)CC4)nn23)n1` [compound A, 6-(4-fluoropiperidin-1-yl)-3-(6-methoxypyridin-2-yl)-1,2,4-triazolo[4,3-b]pyridazine], in assay [2], the “urinary deoxypyridinoline value (urine volume correction), bone resorption index” value is “increased”. For the same compound, in assay [1], the “femoral bone strength (three-point bending test)” value was “increasing tendency”, the “femoral cortical bone mineral density (pQCT)” value is listed as “increasing tendency” and the “femoral cortical bone thickness (pQCT)” value was “increasing tendency”. In assay [1] (Test 1, OVX rats, 24 hour urine, HPLC method (FIG. 4)), the “urinary deoxypyridinoline value (urine volume correction), bone resorption index” value is on record as “increased”.
